Data set [1] relates to Rattus norvegicus. The data set is described as follows: (§1) Volume of distribution at steady state in male Wistar rat at 1 mg/kg, iv. To be noted: in vivo. On the set-up: dose 1 mg/kg, route intravenous. Format: ADME, organism-based.
Data set [2] in a line: Tmax in male Wistar rat at 7 mg/kg, po. It is filed as ADME, organism-based. On the set-up: dose 7 mg/kg, route oral. Particulars: in vivo.
Data set [3] is described as follows: Oral bioavailability in male Wistar rat at 7 mg/kg. Format: ADME, organism-based. Particulars: in vivo.
Data set [4] can be described thus: Cmax in male Wistar rat at 7 mg/kg, po. It is filed as ADME, organism-based. Particulars: in vivo. Further details: dose 7 mg/kg, route oral.
Data set [5] is described as follows: AUC (infinity) in male Wistar rat at 7 mg/kg, po. It is filed as ADME, organism-based. On the set-up: time infinity, dose 7 mg/kg, route oral. To be noted: plasma.
Data set [6] in a line: Ratio of drug level in brain to plasma in male Wistar rat. Particulars: read-out: BPR. It is filed as ADME.
Data set [7] is described as follows: Ratio of drug level in CSF to plasma in male Wistar rat. It is filed as ADME.
Data set [8] can be described thus: Volume of distribution at steady state in male Wistar rat at 2 mg/kg, iv. Particulars: in vivo, read-out: Vdss. Format: ADME, organism-based. Further details: dose 2 mg/kg, route intravenous.
Data set [9] in a line: AUC (infinity) in male Wistar rat at 10 mg/kg, po. It is filed as ADME, organism-based. On the set-up: time infinity, dose 10 mg/kg, route oral. To be noted: plasma.
Data set [10] is described as follows: Tmax in male Wistar rat at 10 mg/kg, po. To be noted: in vivo. Format: ADME, organism-based. On the set-up: dose 10 mg/kg, route oral.
A short description of data set [11]: Oral bioavailability in male Wistar rat at 10 mg/kg. Format: ADME, organism-based. To be noted: in vivo.
The nature of data set [12]: Cmax in male Wistar rat at 10 mg/kg, po. It is filed as ADME, organism-based. Further details: dose 10 mg/kg, route oral. To be noted: in vivo.
In data set [13] the test system is Plasma. The experiment in a line: Plasma concentration in male Sprague-Dawley rat at 0.3 mg/ml, po. Format: ADME.
Data set [14] can be described thus: as §1. On the set-up: dose 1 mg/kg, route intravenous. It is filed as ADME, organism-based. To be noted: male, Wistar, in vivo, read-out: Vdss.
Data set [15] in a line: AUC (infinity) in fed cynomolgus monkey at 0.3 mg/kg, po. It is filed as ADME, organism-based, Macaca fascicularis. Further details: time infinity, dose 0.3 mg/kg, route oral. Particulars: plasma.
Data set [16] can be described thus: AUC (infinity) in fasted cynomolgus monkey at 0.3 mg/kg, po. Further details: time infinity, dose 0.3 mg/kg, route oral. It is filed as ADME, organism-based, Macaca fascicularis. To be noted: plasma.
A short description of data set [17]: Cmax in fed cynomolgus monkey at 0.3 mg/kg, po. It is filed as ADME, organism-based, Macaca fascicularis. Further details: dose 0.3 mg/kg, route oral. To be noted: in vivo.
The nature of data set [18]: Oral bioavailability in fed cynomolgus monkey at 0.3 mg/kg. It is filed as ADME, organism-based, Macaca fascicularis. To be noted: in vivo.
The nature of data set [19]: Volume of distribution at steady state cynomolgus monkey at 1 mg/kg, iv. Format: ADME, organism-based, Macaca fascicularis. Further details: dose 1 mg/kg, route intravenous. To be noted: in vivo, read-out: Vdss.
Data set [20] is described as follows: Tmax in fed cynomolgus monkey at 03 mg/kg, po. Format: ADME, organism-based, Macaca fascicularis. Further details: dose 3 mg/kg, route oral. Particulars: in vivo, 3 mg/kg.
A short description of data set [21]: Oral bioavailability in fasted cynomolgus monkey at 0.3 mg/kg. Format: ADME, organism-based, Macaca fascicularis. Particulars: in vivo.
The nature of data set [22]: Cmax in fasted cynomolgus monkey at 0.3 mg/kg, po. To be noted: in vivo. Further details: dose 0.3 mg/kg, route oral. It is filed as ADME, organism-based, Macaca fascicularis.
Data set [23] in a line: Tmax in fasted cynomolgus monkey at 03 mg/kg, po. It is filed as ADME, organism-based, Macaca fascicularis. Further details: dose 3 mg/kg, route oral. Particulars: in vivo, 3 mg/kg.
Data set [24] relates to Plasma. The experiment in a line: Plasma concentration in male Sprague-Dawley rat at 0.03 mg/ml, po. It is filed as ADME.

Usually Vdss stands for the apparent volume that relates the amount in the body to the concentration in plasma or blood. As usually defined, the Tmax is the time from dosing to the highest level. For orientation: bioavailability means the share of a dose that reaches the circulation, judged against a reference dose that is usually intravenous. What is called Cmax is the maximum level reached in the sampled fluid or tissue. Broadly, the AUC(0-inf) is total exposure, with the tail of the curve extrapolated. Take `C(#Cc1ncn2c1COc1ccccc1-2)c1ccccc1`: the Vdss in data set [1] was determined as 2.9 L/kg. In addition, in [2], the Tmax worked out at 2.3 h. Also, in data set [3], the bioavailability is 18%. Further, in [4], the concentration peaked (Cmax) at 158 ng/mL. For the same compound, the AUC(0-inf) in data set [5] came out at 661 ng·h/mL.

With `Cc1cc(C#Cc2cn(-c3ccc(F)cc3)c(C)n2)ccn1`, the Kp was 0.4 in [6] and 0.02 in data set [7]. The Tmax in data set [2] came out at 1.1 h. In data set [3], this compound came in with a bioavailability of 84%. For the same compound, the Vd in data set [8] was determined as 0.8 L/kg. In [4], the Cmax was found to be 1660 ng/mL. The compound also returned a total exposure AUC(0-inf) in data set [5] of 10500 ng·h/mL.

The compound `Cc1nc(C#Cc2ccnc(Cl)c2)c(C)n1-c1ccc(OC(F)(F)F)cc1` had an AUC(0-inf) in [9] of 78900 ng·h/mL. Besides, the Tmax in [10] is 5.5 h. In addition, the Kp in [6] came out at 2.6. In data set [11], the bioavailability stood at 98%. In [12], the highest concentration (Cmax) amounted to 619 ng/mL. Moreover, the Vd in data set [8] came to 11 L/kg.

In the case of `Cc1nc(C#Cc2ccnc(Cl)c2)c(C)n1-c1ccc(F)cc1` [BASIMGLURANT], the AUC(0-inf) worked out at 25600 ng·h/mL in data set [9], 298 ng·h/mL in data set [15] and 852 ng·h/mL in data set [16]. Besides, the Tmax in data set [10] was 6.2 h; in data set [20], 2 h; in data set [23] it was 1 h. Moreover, the results for the Kp in data set [6] and in [7] were 2.9 and 0.06, respectively. The bioavailability was 91% in [11], 54% in [18] and 100% in [21]. In addition, the Cp in data set [13] is 37 ng/mL; in data set [24], 5 ng/mL. In addition, the results for the Vd in [14] and in [19] were 4 L/kg and 5.1 L/kg, respectively. Further, the values for the Cmax in data set [12], in data set [17] and in data set [22] were 1580 ng/mL, 36.1 ng/mL and 76.5 ng/mL, respectively.
